Experimental data: PubChem BioAssay (NCI)
Several values for one entry are separate records, joined by “and”; a condition that tells them apart may be missing. Equal values may be shown once.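 Cultured in 96-well plates, cells were exposed to test compound for 48 hours across five concentrations. GI50: concentration for 50% inhibition of growth. TGI: concentration producing complete growth inhibition.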

Key:
Assay in all cases: NCI anticancer screen, dose series, 48 h
SF-295 CNS = tested on: SF-295 CNS
U251 CNS = tested on: U251 CNS
COLO 205 colon = tested on: COLO 205 colon
SK-MEL-5 melanoma = tested on: SK-MEL-5 melanoma
HCT-15 colon = tested on: HCT-15 colon
SN12C renal = tested on: SN12C renal
CCRF-CEM leukemia = tested on: CCRF-CEM leukemia
LOX IMVI melanoma = tested on: LOX IMVI melanoma
NCI-H226 lung = tested on: NCI-H226 lung
SNB-75 CNS = tested on: SNB-75 CNS

Row | SMILES | GI50 (SF-295 CNS) | TGI (SF-295 CNS) | GI50 (U251 CNS) | TGI (U251 CNS) | GI50 (COLO 205 colon) | TGI (COLO 205 colon) | GI50 (SK-MEL-5 melanoma) | TGI (SK-MEL-5 melanoma) | GI50 (HCT-15 colon) | TGI (HCT-15 colon) | GI50 (SN12C renal) | TGI (SN12C renal) | GI50 (CCRF-CEM leukemia) | TGI (CCRF-CEM leukemia) | GI50 (LOX IMVI melanoma) | TGI (LOX IMVI melanoma) | GI50 (NCI-H226 lung) | TGI (NCI-H226 lung) | GI50 (SNB-75 CNS) | TGI (SNB-75 CNS)
1 | CCOC(=O)[C@@H]1CSC(CC)=C(C(=O)O)N1 | > 100 µM | > 100 µM | > 100 µM | > 100 µM | > 100 µM | > 100 µM | > 100 µM | > 100 µM | > 100 µM | > 100 µM | > 100 µM | > 100 µM | > 100 µM | > 100 µM | > 100 µM | > 100 µM | > 100 µM | > 100 µM | > 100 µM | > 100 µM
2 | O=C1OC(=O)C([Se]c2ccccc2)=C1[Se]c1ccccc1 | – | > 100 µM | – | > 100 µM | – | > 100 µM | – | > 100 µM | – | > 100 µM | – | > 100 µM | – | > 100 µM | – | > 100 µM | – | > 100 µM | – | > 100 µM
3 | O=C1C(=O)C2(CC1S(=O)(=O)c1ccccc1)c1ccccc1-c1ccccc12 (stereo not given) | – | 37.7 µM | – | 34.3 µM | – | 26.1 µM | – | 28.2 µM | – | 34.6 µM | – | 78.1 µM | – | 58.2 µM | – | 34.5 µM | – | 82.6 µM | – | > 100 µM
4 | N#[N+]c1ccc(Nc2ccccc2)cc1 | > 50 µg/mL | > 50 µg/mL | > 50 µg/mL | > 50 µg/mL | > 50 µg/mL | > 50 µg/mL | > 50 µg/mL | > 50 µg/mL | > 50 µg/mL | > 50 µg/mL | > 50 µg/mL | > 50 µg/mL | > 50 µg/mL | > 50 µg/mL | > 50 µg/mL | > 50 µg/mL | > 50 µg/mL | > 50 µg/mL | > 50 µg/mL | > 50 µg/mL
5 | COc1cc2ncnc(Oc3cccc(NC(=O)Nc4cc(C(C)(C)C(F)(F)F)on4)c3)c2cc1OC | 2.91 µM and 2.98 µM | 13.1 µM and > 10 µM | 2.98 µM and 4.09 µM | 14.1 µM and > 10 µM | 0.103 µM and 0.153 µM | 5.71 µM and > 5.57 µM | 1.3 µM and 1.45 µM | 3.01 µM and 3.67 µM | 2.16 µM and 2.67 µM | 12.5 µM and > 10 µM | 1.61 µM and 1.69 µM | 11.9 µM and > 10 µM | 3.06 µM and 3.26 µM | > 100 µM | 0.319 µM and 0.421 µM | 1.54 µM and 1.81 µM | 1.13 µM and 1.67 µM | 33.7 µM and > 10 µM | 2.79 µM and 6.27 µM | 13.5 µM and > 10 µM
6 | Cc1ccc(S(=O)C(C)C(Cl)c2ccccc2)cc1 (stereo not given) | – | > 100 µM | – | > 100 µM | – | > 100 µM | – | > 100 µM | – | > 100 µM | – | > 100 µM | – | > 100 µM | – | > 100 µM | – | > 100 µM | – | > 100 µM
7 | COc1ccc2c(c1)C(=O)c1c-2c(OCCN(C)C)nc2cc(OC)c(OC)cc12 | 0.0293 µM | 0.21 µM | 3.08 µM | 19.1 µM | 11.5 µM | > 100 µM | 32.1 µM | > 100 µM | 9.67 µM | 23.6 µM | 2.72 µM | > 100 µM | 0.0714 µM | 3.91 µM | 1.01 µM | 12.3 µM | 2.95 µM | 22.1 µM | 8.65 µM | 26.1 µM
8 | C[C@@H]1CCc2ncc(F)cc2[C@H]2CCCN2c2ccn3ncc(c3n2)C(=O)N1 | 60.6 µM | > 100 µM | > 100 µM | > 100 µM | 75.9 µM | > 100 µM | > 100 µM | > 100 µM | 77.1 µM | > 100 µM | 44.1 µM | > 100 µM | > 100 µM | > 100 µM | 33.1 µM | > 100 µM | 28.3 µM | > 100 µM | 19.6 µM | 97 µM
9 | OCC(O)C(O)C(O)C(O)c1nnc2c(-c3ccccc3)nc3ccccc3n12 (stereo not given) | > 100 µM | > 100 µM | > 100 µM | > 100 µM | 74 µM | > 100 µM | 70.3 µM | > 100 µM | 53.1 µM | > 100 µM | > 100 µM | > 100 µM | > 100 µM | > 100 µM | 51.5 µM | > 100 µM | > 100 µM | > 100 µM | > 100 µM | > 100 µM
10 | CCOC(=O)c1c(NC(=O)c2ccc(Cl)cc2)sc2c(CN(C)C)c(O)ccc12 | 3.79 µM | 16.4 µM | 4.85 µM | 23.5 µM | 1.87 µM | 4.1 µM | 10.8 µM | 35.1 µM | 2.16 µM | 5.76 µM | 14.6 µM | > 100 µM | 13.3 µM | > 100 µM | 4.73 µM | 18.5 µM | 18.3 µM | > 100 µM | 3.25 µM | 19 µM
11 | CC(O)[C@H](NC(=O)N[C@@H](CC(N)=O)c1nc(N2CCNCC2)no1)C(=O)O (stereo not given in full) | > 100 µM | > 100 µM | > 100 µM | > 100 µM | > 100 µM | > 100 µM | > 100 µM | > 100 µM | > 100 µM | > 100 µM | > 100 µM | > 100 µM | > 100 µM | > 100 µM | > 100 µM | > 100 µM | > 100 µM | > 100 µM | > 100 µM | > 100 µM
12 | COc1cccc(-c2nc3sccn3c2-c2ccnc(NCCCNS(=O)(=O)c3ccccc3)c2)c1 | 3.18 µM | 20.8 µM | 4.55 µM | > 100 µM | 3.01 µM | > 100 µM | 1.88 µM | 3.77 µM | 3.02 µM | > 100 µM | 2.76 µM | > 100 µM | 2.73 µM | > 100 µM | 3.12 µM | > 100 µM | 2.92 µM | > 100 µM | 1.55 µM | 8.08 µM
13 | C=CC(=O)Nc1cc2c(Nc3ccc(F)c(Cl)c3)ncnc2cc1C#CC(C)(C)N1CCN(C)CC1 | 2.94 µM | 6.62 µM | 2.66 µM | 5.48 µM | 2.09 µM | 5.43 µM | 4.69 µM | 7.42 µM | 1.68 µM | 5.11 µM | 0.572 µM | 2.51 µM | 1.24 µM | 5.08 µM | 1.27 µM | 2.65 µM | 4.06 µM | 6.04 µM | 1.16 µM | 3.86 µM
14 | Cc1ccc(OC(=O)N2C/C(=C\c3ccccc3)C(=O)/C(=C/c3ccccc3)C2)cc1 | – | 47.6 µM | – | 38.6 µM | – | > 100 µM | – | > 57.3 µM | – | > 100 µM | – | 58.3 µM | – | 16.3 µM | – | 9.71 µM | – | > 100 µM | – | 55.4 µM
15 | COc1cc2c3c(n(CCCNCCCNCCCN)c(=O)c2cc1OC)-c1cc2c(cc1C3=O)OCO2 | 40.6 µM | > 100 µM | 46.2 µM | > 100 µM | 46.1 µM | > 100 µM | > 100 µM | > 100 µM | 73.6 µM | > 100 µM | 32.9 µM | > 100 µM | 35.1 µM | > 100 µM | 32.4 µM | > 100 µM | > 100 µM | > 100 µM | 12.8 µM | > 100 µM
16 | O=C1Nc2ccc3c(c2/C1=C\c1cc2c(cc1Br)OCO2)OCO3 | 0.527 µM | 2.5 µM | 0.422 µM | 1.68 µM | 0.356 µM | 2.66 µM | 0.429 µM | 2.52 µM | 0.515 µM | > 100 µM | 0.781 µM | 6.47 µM | 0.244 µM | 3.05 µM | 0.652 µM | 4.57 µM | 1.38 µM | 5.35 µM | 0.189 µM | 1.41 µM
